{"source": "patent US7595079B2", "about": "“Nutritional conjunctive support therapy for recovery in animals following stress or illness” (Bomac Vets Plus, Inc., priority 2005, dated 2009)", "origin": "cited, not measured here", "key": {"small intestinal crypt": {"system": "small intestinal crypt", "conditions": "E. coli induced diarrhea in calves; target value ≦100"}, "jejunum villus": {"system": "jejunum villus", "conditions": "weaning of pigs; target value ≧339"}, "jejunum crypt": {"system": "jejunum crypt", "conditions": "malnourished rats; target value ≦150"}}}
{"smiles": "NC(=O)CC[C@H](N)C(=O)O", "note": "[Glutamine]", "values": [{"measurement": "Mid plus Distal small intestinal Crypt width (mean % of baseline control)", "setting": "small intestinal crypt", "result": "92.2 mean % of baseline control"}, {"measurement": "Jejunum Villus Height", "setting": "jejunum villus", "result": 358, "unit": "um"}, {"measurement": "Jejunum Crypt depth", "setting": "jejunum crypt", "result": 134, "unit": "um"}]}
